Data: PubChem BioAssay (NCI)
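Briefly, cells in 96-well plates were exposed to five compound concentrations for 48 h, and endpoints were estimated by linear interpolation. The concentration for 50% growth inhibition is given as GI50. Definition used: TGI = concentration required for complete inhibition of growth.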

Tests used:
Assay in all cases: growth of human tumour cells (NCI), 48 h
[1] = test system: SNB-19 CNS
[2] = test system: TK-10 renal
[3] = test system: SR leukemia
[4] = test system: 786-0 renal
[5] = test system: U251 CNS
[6] = test system: RXF 393 renal
[7] = test system: MDA-MB-231 breast
[8] = test system: NCI-H226 lung
[9] = test system: SK-OV-3 ovarian
[10] = test system: SN12C renal
[11] = test system: BT-549 breast
[12] = test system: HS 578T breast
[13] = test system: K-562 leukemia
[14] = test system: ACHN renal
[15] = test system: M14 melanoma
[16] = test system: HT29 colon
[17] = test system: SK-MEL-2 melanoma
[18] = test system: DU-145 prostate
[19] = test system: A549 NSCLC
[20] = test system: SF-295 CNS
[21] = test system: MOLT-4 leukemia
[22] = test system: SK-MEL-5 melanoma
[23] = test system: A498 renal
[24] = test system: SNB-75 CNS
[25] = test system: KM12 colon
[26] = test system: UACC-62 melanoma
[27] = test system: NCI-H522 lung
[28] = test system: CAKI-1 renal
[29] = test system: LOX IMVI melanoma
[30] = test system: IGROV1 ovarian
[31] = test system: HCC-2998 colon
[32] = test system: HCT-15 colon
[33] = test system: RPMI-8226 leukemia
[34] = test system: EKVX NSCLC
[35] = test system: MALME-3M melanoma
[36] = test system: PC-3 prostate
[37] = test system: NCI-H460 lung
[38] = test system: COLO 205 colon
[39] = test system: UO-31 renal
[40] = test system: SW-620 colon
[41] = test system: HOP-62 NSCLC
[42] = test system: HL-60(TB) leukemia
[43] = test system: HOP-92 NSCLC
[44] = test system: SF-539 CNS
[45] = test system: CCRF-CEM leukemia
[46] = test system: SK-MEL-28 melanoma
[47] = test system: T-47D breast
[48] = test system: SF-268 CNS
[49] = test system: MDA-MB-435
[50] = test system: MCF7 breast
[51] = test system: HCT-116 colon
[52] = test system: NCI/ADR-RES ovarian
[53] = test system: OVCAR-4 ovarian
[54] = test system: OVCAR-8 ovarian
[55] = test system: UACC-257 melanoma
[56] = test system: OVCAR-3 ovarian
[57] = test system: OVCAR-5 ovarian

`C/C(=C(/c1ccc(O)cc1)c1ccc(OCCN2CCCC2)cc1)c1ccc(Cl)cc1` gave a GI50 [1] of 3.85 µM, a TGI [1] of 13.8 µM and a GI50 [2] of 13.6 µM. It also gave a TGI [2] of 27.3 µM, a GI50 [3] of 1.81 µM and a TGI [3] of 4.71 µM. For the same molecule, the GI50 [4] was 1.65 µM, the TGI [4] was 3.16 µM and the GI50 [5] was 2.03 µM. It also gave a TGI [5] of 4.59 µM, a GI50 [6] of 1.63 µM and a TGI [6] of 3.23 µM. The GI50 [7] was 3.52 µM, the TGI [7] was 13.1 µM and the GI50 [8] was 10.8 µM. The TGI [8] was 32.4 µM, the GI50 [9] was 9.59 µM and the TGI [9] was 21.5 µM. The GI50 [10] was 5.21 µM, the TGI [10] was 18.2 µM and the GI50 [11] was 8.98 µM. It also gave a TGI [11] of 21.1 µM, a GI50 [12] of 2.56 µM and a TGI [12] of 8.36 µM. The GI50 [13] was 1.64 µM, the TGI [13] was 3.94 µM and the GI50 [14] was 3.35 µM. It also gave a TGI [14] of 11.9 µM, a GI50 [15] of 1.69 µM and a TGI [15] of 3.23 µM. For the same molecule, the GI50 [16] was 1.73 µM, the TGI [16] was 3.41 µM and the GI50 [17] was 7.37 µM. For the same molecule, the TGI [17] was 20.5 µM, the GI50 [18] was 4.54 µM and the TGI [18] was 15.7 µM. For the same molecule, the GI50 [19] was 7.58 µM, the TGI [19] was 20.5 µM and the GI50 [20] was 2.16 µM. It also gave a TGI [20] of 4.77 µM, a GI50 [21] of 2.52 µM and a TGI [21] of 6.02 µM. The GI50 [22] was 1.78 µM, the TGI [22] was 3.23 µM and the GI50 [23] was 16.6 µM. It also gave a TGI [23] of 32.3 µM, a GI50 [24] of 3.06 µM and a TGI [24] of 16.6 µM. It also gave a GI50 [25] of 3.39 µM, a TGI [25] of 12.2 µM and a GI50 [26] of 2.04 µM. The TGI [26] was 4.57 µM, the GI50 [27] was 1.83 µM and the TGI [27] was 4.11 µM. For the same molecule, the GI50 [28] was 2.07 µM, the TGI [28] was 6.39 µM and the GI50 [29] was 1.71 µM. The TGI [29] was 3.17 µM, the GI50 [30] was 4.62 µM and the TGI [30] was 17.5 µM. It also gave a GI50 [31] of 2.06 µM, a TGI [31] of 4.21 µM and a GI50 [32] of 1.99 µM. The TGI [32] was 4.62 µM, the GI50 [33] was 2.24 µM and the TGI [33] was 5.52 µM. For the same molecule, the GI50 [34] was 5.84 µM, the TGI [34] was 18.7 µM and the GI50 [35] was 1.64 µM. It also gave a TGI [35] of 3.11 µM, a GI50 [36] of 2.94 µM and a TGI [36] of 10.8 µM. It also gave a GI50 [37] of 1.8 µM, a TGI [37] of 3.33 µM and a GI50 [38] of 1.64 µM. It also gave a TGI [38] of 3.14 µM, a GI50 [39] of 2.51 µM and a TGI [39] of 11.4 µM. The GI50 [40] was 1.69 µM, the TGI [40] was 3.24 µM and the GI50 [41] was 3.99 µM. The TGI [41] was 15 µM, the GI50 [42] was 2.09 µM and the TGI [42] was 4.11 µM. It also gave a GI50 [43] of 2.38 µM, a TGI [43] of 9.63 µM and a GI50 [44] of 1.69 µM. The TGI [44] was 3.24 µM, the GI50 [45] was 2.41 µM and the TGI [45] was 7.38 µM. It also gave a GI50 [46] of 1.75 µM, a TGI [46] of 3.21 µM and a GI50 [47] of 1.54 µM. For the same molecule, the TGI [47] was 10.4 µM, the GI50 [48] was 4.78 µM and the TGI [48] was 20 µM. The GI50 [49] was 1.72 µM, the TGI [49] was 3.21 µM and the GI50 [50] was 0.0364 µM. It also gave a TGI [50] of 3.26 µM, a GI50 [51] of 1.63 µM and a TGI [51] of 3.21 µM. For the same molecule, the GI50 [52] was 3.68 µM, the TGI [52] was 14.2 µM and the GI50 [53] was 4.78 µM. The TGI [53] was 17.2 µM, the GI50 [54] was 2.82 µM and the TGI [54] was 8.04 µM. The GI50 [55] was 1.78 µM, the TGI [55] was 3.55 µM and the GI50 [56] was 3.05 µM. The TGI [56] was 11.8 µM, the GI50 [57] was 6.26 µM and the TGI [57] was 18.8 µM.
